Target: T1, Aldo-keto reductase family 1 member B1 (Homo sapiens, UniProt P15121)
Assay: Compound was evaluated for inhibition of human placental aldose reductase (HPAR) activity with glyceraldehyde as substrate

Row | SMILES | IC50
1 | C[S+]([O-])c1ccc(Cl)cc1-c1[nH]c(=O)[nH]c1O (configuration not stated) | 250 nM
2 | CS(=O)(=O)c1ccc(Cl)cc1-c1[nH]c(=O)[nH]c1O | 50 nM

Target: T1, Aldo-keto reductase family 1 member B1
Assay: ChEBML_157077
Description: Inhibition of human placental aldose reductase (HPAR) activity with glyceraldehyde as substrate

Row | SMILES | IC50
3 | CS(=O)(=O)c1ccc(F)cc1-c1[nH]c(=O)[nH]c1O | 610 nM
4 | CCCCCCS(=O)(=O)c1ccc(Cl)cc1-c1[nH]c(=O)[nH]c1O | 230 nM
5 | O=c1[nH]c(O)c(-c2cc(Cl)ccc2S(=O)(=O)Nc2ccc(F)cc2)[nH]1 | 230 nM
6 | Cc1cc(Cl)cc(-c2[nH]c(=O)[nH]c2O)c1S(C)(=O)=O | 270 nM
7 | CCCS(=O)(=O)c1ccc(Cl)cc1-c1[nH]c(=O)[nH]c1O | 250 nM
8 | CS(=O)(=O)c1c(-c2[nH]c(=O)[nH]c2O)cc(Cl)cc1C(F)(F)F | 580 nM
9 | O=c1[nH]c(O)c(-c2cc(Cl)ccc2S(=O)(=O)Cc2ccc(Cl)cc2)[nH]1 | 270 nM
10 | CCCCCS(=O)(=O)c1ccc(Cl)cc1-c1[nH]c(=O)[nH]c1O | 50 nM
11 | CCCNS(=O)(=O)c1ccc(Cl)cc1-c1[nH]c(=O)[nH]c1O | 580 nM
12 | CS(=O)(=O)c1c(Cl)cc(Cl)cc1-c1[nH]c(=O)[nH]c1O | 610 nM
